From patent US9663764B2, “Generation of cardiomyocytes from human pluripotent stem cells” (Wisconsin Alumni Research Foundation, priority 2011, dated 2017)

Assays:
Type in all cases: cell-based, human
H9 hESCs = assay: Activin A/BMP4 directed cardiac differentiation with GSK3 inhibitor pretreatment, cTnT flow cytometry; conditions: for contracting cardiomyocytes generated: Activin A and BMP4 protocol without GSK3 inhibitor, H9 cells
Description: (§1) Cardiac directed differentiation using Activin A and BMP4: hPS cells maintained on Matrigel® in mTeSR1 were dissociated into single cells with Accutase (Invitrogen) at 37° C. for 5 min and then seeded onto a Matrigel®-coated cell culture dish at 100,000 cell/cm^2 in mTeSR1 supplemented with 5 μM ROCK inhibitor (Y-27632, Stemgent) (day −5). Cells were cultured in mTeSR1, changed daily. At day 0, cells were treated with 100 ng/ml Activin A (R&D) in RPMI/B27-insulin. After 24 hr, the medium was changed to RPMI/B27-insulin supplemented with 5 ng/ml BMP4 (R&D) for another 4 days. At day 5, the medium was changed with RPMI/B27-insulin. At day 7 the cells were transferred to RPMI/B27, and medim changed every 3 days. When using GSK3 inhibitors to stimulate differentiation, cells were cultured in mTeSR1 containing BIO or CHIR99021 from day −3 to day 0.
(§2) Flow Cytometry: Cells were dissociated into single cells and then fixed with 1% paraformaldehyde for 20 min at room temperature and stained with primary and secondary antibodies in PBS plus 0.1% Triton X-100 and 0.5% BSA. For the cell proliferation assay, a 17-hour pulse of BrdU was performed to identify dividing cardiomyocytes (Zhang et al., Circ. Res. 104, e30-41 (2009)). Data were collected on a FACSCaliber flow cytometer (Beckton Dickinson) and analyzed using FlowJo.
Undifferentiated H9 hESCs were cultured in the presence of 0-8 μM CH for three days prior to EB formation. EBs were cultured in suspension for 4 days before transferring to 0.1% gelatin coated plates. […] The inventors also applied the GSK3 inhibitors CH and BIO to undifferentiated H9 hESCs three days prior to directed differentiation to cardiomyocytes via Activin A and BMP4.

IMR90C4 iPSC line = assay: Activin A/BMP4 directed cardiac differentiation with BIO pretreatment, cTnT flow cytometry; conditions: three days of BIO pretreatment prior to Activin A and BMP4; day 15
Description: as §1
as §2, with “FlowJo. […]” for “FlowJo.”

19-9-11 ishcat-2 cells = assay: cTnT+ cell generation with Activin A and BMP4 signaling antagonists during CH induction; conditions: dox at 48 hours
Description: (§3) cardiac directed differentiation via small molecules: Cells were dissociated and plated as described in the Activin/BMP4 protocol. When hPS cells maintained on Matrigel® or Synthemax plates achieved confluence, cells were treated with CH in RPMI/B27-insulin for 24 hr (day 0 to day 1). The medium was changed to RPMI/B27-insulin, followed by 2 μg/ml dox treatment at different times between day 1 and day 5 for transgenic cell lines. For genetically unmodified lines, 5 μM IWP2 (Tocris) or IWP4 (Stemgent) was added at day 3 and removed during the day 5 medium change. Cells were maintained in the RPMI/B27 starting from day 7, with the medium changed every 3 days.
as §2, with “For the cell proliferation assay, a 17-hour pulse of BrdU was performed to identify dividing cardiomyocytes (Zhang et al., Circ. Res. 104, e30-41 (2009)).” left out
To determine whether canonical Wnt signaling requires TGFβ superfamily signaling to induce cardiogenesis, the inventors quantified cTnT+ cell generation in 19-9-11 ishcat-2 cells when Activin A and BMP4 signaling antagonists were presented during the first 24 hr of cardiomyocyte induction with 12 μM CH. […]

[1] = tested on: Smad1/5 and Smad2 phosphorylation in 19-9-11 ishcat cells; assay: Smad1/5 and Smad2 phosphorylation, western blot; conditions: for Smad1/5 and Smad2 phosphorylation: 100 ng/ml Activin A at day 0 and 5 ng/ml BMP4 at day 1
Description: Western Blot Analysis: Cells were lysed in M-PER Mammalian Protein Extraction Reagent (Pierce) in the presence of Halt Protease and Phosphatase Inhibitor Cocktail (Pierce). Proteins were separated by 10% Tris-Glycine SDS/PAGE (Invitrogen) under denaturing conditions and transferred to a nitrocellulose membrane. After blocking with 5% milk in TBST, the membrane was incubated with primary antibody overnight at 4° C. The membrane was then washed, incubated with an anti-mouse/rabbit peroxidase-conjugated secondary antibody (1:1000, Cell Signaling) at room temperature for 1 hr, and developed by SuperSignal chemiluminescence (Pierce).
To determine whether canonical Wnt signaling requires TGFβ superfamily signaling to induce cardiogenesis, the inventors quantified cTnT+ cell generation in 19-9-11 ishcat-2 cells when Activin A and BMP4 signaling antagonists were presented during the first 24 hr of cardiomyocyte induction with 12 μM CH. All samples were treated with dox at 48 hours. […] To further investigate the role of TGFβ superfamily signaling in Wnt pathway-mediated cardiogenesis the inventors assessed Smad1/5 and Smad2 phosphorylation, downstream of BMP4 and Activin A signaling respectively. As expected, substantial Smad1/5 and Smad2 phosphorylation was detected in cells that had been treated with Activin A and BMP4 (FIGS. 9B and 10A).

19-9-11 iPSCs = assay: Cardiac directed differentiation via small molecules on Matrigel, cTnT/MF20 flow cytometry; conditions: for cTNT+ or MF20+ cells: 12 μM CH at day 0, then 5 μM Wnt inhibitor at day 3, after 15 days
Description: as §3, §2
While shRNA inhibition of β-catenin provides specific and facile temporal regulation of canonical Wnt signaling, this method requires genetic modification of the hPS cell line which limits its potential clinical utility. The inventors next used the mechanistic insight these modified lines provided regarding the sufficiency of canonical Wnt signaling in cardiomyogenesis to develop a completely defined, growth factor free method of efficiently generating cardiomyocytes from unmodified hPS cell lines using small molecules. First, 19-9-11 iPSCs were maintained in mTeSR1 on Matrigel® for five days, and then the medium was switched to RPMI/B27-insulin containing 12 μM CH. IWP4 and IWP2, which prevent palmitylation of Wnt proteins by porcupine thereby blocking Wnt protein secretion and activity (Chen et al., Nat. Chem. Biol. 5:100-107 (2009)), were used to inhibit Wnt signaling. […] Similar to results obtained with the 19-9-11 ishcat-1 cell line, CH treatment of 19-9-11 cells alone only generated 16% cTNT+ or MF20+ cells after 15 days, while adding 5 μM IWP4 or IWP2 at day 3 increased this to 87% cTNT+ or MF20+ cells. […] In order to achieve fully defined culture conditions, Matrigel® was replaced with a defined peptide acrylate surface (Synthemax) during both hPS cell expansion and differentiation. […] Thus, optimization of canonical WNT signaling via stage-specific addition of small molecule agonists and antagonists produces high yields of functional cardiomyocytes in a completely defined, growth factor free culture system.

[2] = tested on: 19-9-11 and IMR90C4 iPSCs; assay: Cardiac directed differentiation via small molecules on Synthemax plates, cTnT/MF20 flow cytometry; conditions: 12 μM CH at day 0 and 5 μM IWP4 at day 3, day 15
Description: as §3, §2
While shRNA inhibition of β-catenin provides specific and facile temporal regulation of canonical Wnt signaling, this method requires genetic modification of the hPS cell line which limits its potential clinical utility. […]

## O=C1Nc2cc(Br)ccc2/C1=C1/Nc2ccccc2/C1=N\O [BIO]
H9 hESCs; GSK3 inhibitor (1 μM) 3 days prior to Activin A and BMP4, day 15, average
  cTNT-labeled cells: 50%
IMR90C4 iPSC line
  generation of cTNT-expressing cells: enhanced generation of cTNT-expressing cells in the IMR90C4 iPSC line in a dose-dependent manner

## CC(C)Oc1ccc(-c2cnc3c(-c4ccnc5ccccc45)cnn3c2)cc1 [DMH1]
19-9-11 ishcat-2 cells; 0.2-1 μM DMH1 with 12 μM CH for first 24 hr, day 15
  percentage of cTnT+ cells: decreased the percentage of cTnT+ cells in a concentration-dependent manner
[1]; 12 μM CH plus DMH1
  Smad1/5 phosphorylation: strongly attenuated

## Cc1ccc2nc(NC(=O)CSc3nc4c(c(=O)n3-c3ccccc3)SCC4)sc2c1 [IWP2, N-(6-Methyl-2-benzothiazolyl)-2-[(3,4,6,7-tetrahydro-4-oxo-3-phenylthieno[3,2-d]pyrimidin-2-yl)thio]-acetamide]
19-9-11 iPSCs
  cTNT+ or MF20+ cells: 87%

## COc1ccccc1-n1c(SCC(=O)Nc2nc3ccc(C)cc3s2)nc2c(c1=O)SCC2 [IWP4, 2-(3,4,6,7-tetrahydro-3-(2-methoxyphenyl)-4-oxothieno[3,2-d]pyrimidin-2-ylthio)-N-(6-methylbenzo[d]thiazol-2-yl)acetamide]
19-9-11 iPSCs; 12 μM CH at day 0, IWP4 added at day 3
  IWP4 concentration giving optimal generation of cardiomyocytes: 5 µM
19-9-11 iPSCs
  cTNT+ or MF20+ cells: 87%
[2]
  cTNT+ or MF20+ cells: approximately 85%

## NC(=O)c1ccc(-c2nc(-c3ccc4c(c3)OCO4)c(-c3ccccn3)[nH]2)cc1 [SB431542]
19-9-11 ishcat-2 cells; with 12 μM CH for first 24 hr, cTnT+ at day 15
  concentrations that completely blocked cardiomyocyte specification: greater than 2 μM
[1]; 12 μM CH plus SB431542
  Smad2 phosphorylation: diminished

B1: Activin A: growth factor (R&D) used at 100 ng/ml for directed cardiac differentiation (protein, UniProt P08476 311-426, looked up)
Inhibin beta A chain: GLECDGKVNICCKKQFFVSFKDIGWNDWIIAPSGYHANYCEGECPSHIAGTSGSSLSFHSTVINHYRMRGHSPFANLKSCCVPTKLRPMSMLYYDDGQNIIKKDIQNMIVEECGCS
modifications: Inhibin beta A chain
notes: growth factor (R&D) used at 100 ng/ml for directed cardiac differentiation
H9 hESCs
  contracting cardiomyocytes generated: very few contracting cardiomyocytes
[1]
  Smad1/5 and Smad2 phosphorylation: substantial

B2: BMP4: growth factor (R&D) used at 5 ng/ml for directed cardiac differentiation (protein, UniProt P12644 293-408, looked up)
Bone morphogenetic protein 4: SPKHHSQRARKKNKNCRRHSLYVDFSDVGWNDWIVAPPGYQAFYCHGDCPFPLADHLNSTNHAIVQTLVNSVNSSIPKACCVPTELSAISMLYLDEYDKVVLKNYQEMVVEGCGCR
H9 hESCs
  contracting cardiomyocytes generated: very few contracting cardiomyocytes
[1]
  Smad1/5 and Smad2 phosphorylation: substantial
